Laboratory results as given in ChEMBL document CHEMBL1649366, “Self-organizing molecular field analysis on human β-secretase nonpeptide inhibitors: 5, 5-disubstituted aminohydantoins” (Eur J Med Chem, 2011).

Molecular target: Beta-secretase 1 (Homo sapiens, UniProt P56817)
Assay: Inhibition of human BACE1

Chain of Beta-secretase 1 (P56817 whole entry): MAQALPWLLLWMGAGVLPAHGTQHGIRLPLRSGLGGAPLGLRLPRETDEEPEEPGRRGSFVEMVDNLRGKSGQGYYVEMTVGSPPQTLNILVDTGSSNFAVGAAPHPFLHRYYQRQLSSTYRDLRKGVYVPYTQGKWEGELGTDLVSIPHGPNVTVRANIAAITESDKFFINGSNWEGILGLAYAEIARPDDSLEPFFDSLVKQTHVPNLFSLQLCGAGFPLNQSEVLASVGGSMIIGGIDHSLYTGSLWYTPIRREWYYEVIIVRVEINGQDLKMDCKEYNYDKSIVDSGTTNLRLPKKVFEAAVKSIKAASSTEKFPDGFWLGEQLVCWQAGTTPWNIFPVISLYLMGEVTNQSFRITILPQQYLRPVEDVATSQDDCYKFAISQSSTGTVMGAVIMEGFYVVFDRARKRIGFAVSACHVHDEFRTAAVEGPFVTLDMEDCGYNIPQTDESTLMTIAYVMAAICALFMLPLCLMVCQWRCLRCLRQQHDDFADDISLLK

Row | IC50 | SMILES
1 | 0.03 µM | CCc1cc(C2(c3cccc(-c4cncnc4)c3)N=C(N)N(C)C2=O)cc(CC)n1 (centres undefined)
2 | 4.8 µM | NC1=NC(c2ccccc2)(C2CCCCC2)C(=O)N1CCCO (centres undefined)
3 | 20 µM | NC1=NC(c2ccccc2)(c2ccccc2)C(=O)N1
4 | 8 µM | CCN1C(=O)C(c2ccccc2)(c2ccccc2)N=C1N
